The text below walks through data of patent publication US9828351B2, “Enzyme interacting agents” (MONASH UNIVERSITY, priority 2014, dated 2017).

Test [1] has as its target T1, recombinant his tagged human SphK1 (Homo sapiens, UniProt Q9NYA1).
T1 construct: His tag; made in house; host or cells: insect cells (baculovirus system)
The test is described as follows: SphK1 activity assay (32P-labelled S1P production). The class given is biochemical. The note with it: 10 μM compound; % of activity compared to control (DMSO vehicle only). How it is done:
(§1) The SphK assays employed, measure SphK activity through the production of ^32P-labelled S1P following the addition of exogenous Sph and [γ^32P] ATP.
(§2) Activities of SphK1 and SphK2 were determined using identical assay conditions with the exception that SphK1 assays used 3 ng/assay recombinant his tagged human SphK1 (made in the lab in a baculovirus system using insect cells), while SphK2 assays used 30 ng/assay recombinant human SphK2 (purchased by Johnson and Johnson).
(§3) Compounds were dissolved in DMSO at 10 mM, the mixture was vortexed (and sonicated if necessary). Stock solutions were kept at 4° C. until used.
(§4) Aliquots were made containing 100 μM drug compound. These aliquots were then diluted in assay buffer: 100 mM tris/HCl pH 7.4, 100 mM NaCl, 1 mM sodium orthovanadate, 10 mM NaF to make up a 10 μM solution.
(§5) Recombinant enzyme was diluted in assay buffer (above) to make up a final concentration of 0.03 ng/μL (SphK1) or 0.33 ng/μL (SphK2).
(§6) 40 μL recombinant enzyme was added to an Eppendorf® Safe-Lock® microcentrifuge tube. This was followed by the addition of drug compound from prepared aliquots, before adding ATP, [γ^32P]ATP and Sph. Note: ATP stock is made up in 1M Tris pH 7.4 and 200 mM MgCl2. This allows ATP to complex with Mg and be available as a substrate.
(§7) The rest of the reaction mixture was then added to the enzyme sample (Table 1). All reactions were performed as triplicates.
(§8) Reaction mixture was prepared with sufficient volume to assay all of the required samples. To do this, each of the volumes shown was multiplied by n+1, where n is the number of samples to be assayed. Assay buffer used is made up of 100 mM tris/HCl pH 7.4, 100 mM NaCl, 1 mM sodium orthovanadate and 10 mM NaF.
(§9) The mixture was then incubated at 37° C. for 20 min (SphK1)/45 min (SphK2).
(§10) To the 100 μL assay mixture, add 270 μl of chloroform/methanol/conc. HCl (100:200:1).
(§11) 20 μL of 5 M KCl was then added to the assay mixture.
(§12) 70 μL of chloroform was added to create phase separation. The solution was vortexed to mix well.
(§13) The solution was then centrifuged for 5 min at 13,000×g to fully separate the phases.
(§14) The upper aqueous/methanol phase was separated by aspiration.
(§15) 50 μL of the remaining lower chloroform phase […] was applied onto the TLC plate by repeatedly spotting a few microliters of liquid (<5 mm diameter circle) between each sample spot with the pipette tip. The liquid was then allowed to absorb into the plate before drying with a stream of air.
(§16) The TLC plate was developed in a glass TLC developing tank with 1-butanol/ethanol/glacial acetic acid/H2O (8:2:1:2) until the mobile phase is within 1 cm of the top of the TLC plate.
(§17) The TLC plate was then exposed to a storage phosphor screen overnight. Storage phosphor screens work by capturing images produced by ionising radiation (e.g. ^32P). The phosphorimager stimulates the screen which uses lasers to convert the latent signal to light. Light is proportional to the amount of radioactivity in the sample. The image is then quantified using standard quantification software (ImageQuant™). Whatman paper with the assay mixture dilutions, was included to assist quantification of the phosphor signal.
(§18) Once the storage phosphor screen was read using the phosphorimager, S1P spots, which have an Rf of 0.7 with the mobile phase employed, were quantified.
(§19) The S1P spot intensity can be converted to the amount of phosphate transferred/min/mg protein.

A further test deals with T2, recombinant human SphK2 (Homo sapiens, UniProt Q9NRA0).
T2 construct: purchased Johnson and Johnson
T2 sequence (Q9NRA0 1-654): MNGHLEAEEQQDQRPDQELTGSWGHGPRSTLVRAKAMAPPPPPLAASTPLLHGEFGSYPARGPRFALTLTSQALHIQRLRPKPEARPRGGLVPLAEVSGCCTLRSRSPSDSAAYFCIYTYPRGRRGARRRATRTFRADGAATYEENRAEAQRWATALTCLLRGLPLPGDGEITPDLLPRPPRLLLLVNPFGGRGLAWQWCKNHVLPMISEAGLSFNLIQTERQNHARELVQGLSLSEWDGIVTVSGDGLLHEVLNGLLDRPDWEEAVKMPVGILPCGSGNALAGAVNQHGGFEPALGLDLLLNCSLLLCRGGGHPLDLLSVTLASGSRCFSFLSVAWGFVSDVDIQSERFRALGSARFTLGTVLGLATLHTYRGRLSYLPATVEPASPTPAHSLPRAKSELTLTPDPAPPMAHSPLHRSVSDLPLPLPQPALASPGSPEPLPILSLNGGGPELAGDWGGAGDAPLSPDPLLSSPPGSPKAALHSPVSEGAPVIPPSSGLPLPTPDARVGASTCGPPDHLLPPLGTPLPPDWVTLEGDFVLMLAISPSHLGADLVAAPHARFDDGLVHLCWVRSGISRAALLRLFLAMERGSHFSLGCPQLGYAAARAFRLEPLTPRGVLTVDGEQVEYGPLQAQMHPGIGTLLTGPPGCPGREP
The test is described as follows: SphK2 activity assay (32P-labelled S1P production). The class given is biochemical. The conditions noted are these: 10 μM compound; % of activity compared to control (DMSO vehicle only); read-out: SphK2% actvity at 10 μm. The protocol:
as §1, §2, §3, §4, §5, §6, §7, §8, §9, §10, §11, §12, §13, §14, §15, §16, §17, §18, §19

Test [2] addresses T3, SphK1a in Flpln-SphK1a cells (Flp-In T-Rex HEK293) (Homo sapiens, UniProt Q9NYA1).
T3 construct: expressed in transfected cells; host or cells: Flp-In T-Rex HEK293 cells, doxycycline-induced
The test can be described thus: SphK1 proteasomal degradation study (immunoblotting). The class given is cell-based. The note with it: 10 μM test compound, 24 h. How it is done: These studies were performed as previously described for the drug SKI-II (C. Loveridge et al. J. Biol. Chem. 2010, 285, 38891). […] After 24 h cells were treated with 10 μm test compound, 10 μm MG132, or both. DMSO was used as the vehicle control. After a further 24 h, cells were harvested, lysed, and subjected to SDS-PAGE and immunoblotting with anti-FLAG (Sigma), anti-ERK1/2 (Promega), or anti-a-tubulin (Abcam) antibodies.

T1 sequence (Q9NYA1 whole entry): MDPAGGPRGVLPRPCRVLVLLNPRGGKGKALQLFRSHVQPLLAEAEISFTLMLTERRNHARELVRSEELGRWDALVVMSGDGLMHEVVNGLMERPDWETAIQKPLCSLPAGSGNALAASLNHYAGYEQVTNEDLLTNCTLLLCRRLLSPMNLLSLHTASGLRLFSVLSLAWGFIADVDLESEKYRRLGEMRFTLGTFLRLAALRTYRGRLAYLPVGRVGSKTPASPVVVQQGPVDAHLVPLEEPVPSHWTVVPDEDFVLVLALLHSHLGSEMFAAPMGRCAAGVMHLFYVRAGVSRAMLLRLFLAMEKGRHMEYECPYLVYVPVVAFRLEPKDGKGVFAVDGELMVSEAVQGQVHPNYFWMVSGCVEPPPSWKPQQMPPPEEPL
T3 sequence (Q9NYA1 whole entry): as above

On to `Oc1ccc(Nc2nc(-c3ccc(Cl)cc3)cs2)cc1` [SKI-II, reference compound], for which, in test [1], the activity at 10 µM fell in the range of 50 to 80%. The remaining activity at 10 µM on recombinant human SphK2 was in the range of 80 to 100%. Besides, the “% SphK1a degradation at 10 μM” value in test [2] is listed as 100%.
